Structures are written as SMILES. pKi: −log10 of the molar value.

The term pKi denotes the Ki on a negative log10 scale, so that one unit is a factor of ten. Read a high pKi as a small Ki. In general, Ki refers to the dissociation constant of the complex between target and ligand, obtained from inhibition or displacement. The low end stands for higher affinity, the high end for lower affinity.

One assay concerns the target T1, Adenosine receptor A1 (Rattus norvegicus, UniProt P25099).
T1 sequence (P25099 whole entry): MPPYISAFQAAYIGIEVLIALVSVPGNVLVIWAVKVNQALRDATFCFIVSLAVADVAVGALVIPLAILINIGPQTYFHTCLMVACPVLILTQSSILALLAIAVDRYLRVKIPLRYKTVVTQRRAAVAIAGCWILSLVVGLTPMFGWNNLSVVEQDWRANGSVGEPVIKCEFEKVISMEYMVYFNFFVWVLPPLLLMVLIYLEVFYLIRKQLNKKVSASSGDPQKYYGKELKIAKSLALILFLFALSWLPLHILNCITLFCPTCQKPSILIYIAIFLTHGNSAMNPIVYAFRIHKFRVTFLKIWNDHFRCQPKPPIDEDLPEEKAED

Assay [1] addresses T2, Adenosine A2 receptor (Rattus norvegicus, UniProt P29276+P30543).
Assay [2] concerns the target T2, Adenosine A2 receptor. As to the kind of experiment: Inhibition of [3H]NECA binding to Adenosine A2 receptor of rat striatal membranes. The class given is cell membranes, Membrane.

The molecule `CC(Cc1ccccc1)Nc1nc(Nc2ccccc2)nc2c1ncn2C1O[C@H](CO)[C@@H](O)[C@H]1O` (stereo not given in full) gave a pKi on Adenosine receptor A1 of 6.82. The Ki at Adenosine A2 receptor [1] stood at 240 nM. At Adenosine A2 receptor [2], `COc1ccc(-c2nc(N)c3ncn(C4O[C@H](CO)[C@@H](O)[C@H]4O)c3n2)cc1` (stereo not given in full) returned an inhibition constant (Ki) of 600 nM. For the same molecule, the pKi on Adenosine receptor A1 was 5.88. `OC[C@H]1OC(n2cnc3c(NC4CC5CCC4C5)nc(Nc4ccccc4)nc32)[C@H](O)[C@@H]1O` (stereo not given in full): the pKi at Adenosine receptor A1 was 8.11. For the same molecule, the Ki on Adenosine A2 receptor [1] amounted to 472 nM.

As for `CC(O)CNc1ncnc2c1ncn2C1O[C@H](CO)[C@@H](O)[C@H]1O` (stereo not given in full), the pKi on Adenosine receptor A1 was 8.30. Besides, the Ki at Adenosine A2 receptor [1] is given as 9300 nM. Regarding `CC(Cc1ccccc1)Nc1nc(Sc2ccccc2)nc2c1ncn2C1O[C@H](CO)[C@@H](O)[C@H]1O` (stereo not given in full), the pKi on Adenosine receptor A1 is 6.68. In addition, on Adenosine A2 receptor [1], the Ki was found to be 1000 nM. `OC[C@H]1OC(n2cnc3c(NCCc4ccccc4)nc(NCCc4ccccc4)nc32)[C@H](O)[C@@H]1O` (stereo not given in full): the pKi on Adenosine receptor A1 is 5.79. Moreover, the Ki at Adenosine A2 receptor [1] was 2000 nM. As for `Nc1nc(=O)[nH]c2c1ncn2[C@@H]1O[C@H](CO)[C@@H](O)[C@H]1O` [ISOGUANOSINE], the Ki at Adenosine A2 receptor [2] came to 330 nM. As to `Nc1nc(NC2CCCCC2)c2ncn(C3O[C@H](CO)[C@@H](O)[C@H]3O)c2n1` (stereo not given in full), the pKi at Adenosine receptor A1 is 7.71. The molecule also registered a Ki on Adenosine A2 receptor [1] of 3500 nM.

With `OC[C@H]1OC(n2cnc3c(NC4CCCC4)nc(Nc4ccccc4)nc32)[C@H](O)[C@@H]1O` (stereo not given in full), the pKi at Adenosine receptor A1 is 7.91. At Adenosine A2 receptor [1], this molecule yielded a Ki of 144 nM. Taken in the same sequence, the figures for `CC(O)CNc1nc(Nc2ccccc2)nc2c1ncn2C1O[C@H](CO)[C@@H](O)[C@H]1O` (stereo not given in full) were 7.30 and 1700 nM. Taken in the same sequence, the figures for `OC[C@H]1OC(n2cnc3c(NCc4cccc5ccccc45)nc(Sc4ccccc4)nc32)[C@H](O)[C@@H]1O` (stereo not given in full) were 5.83 and 610 nM. Molecule `OC[C@H]1OC(n2cnc3c(NCc4cccc5ccccc45)nc(Nc4ccccc4)nc32)[C@H](O)[C@@H]1O` (stereo not given in full) showed a pKi on Adenosine receptor A1 of 6.25. Moreover, at Adenosine A2 receptor [1], the Ki was determined as 230 nM. Taken in the same sequence, the figures for `OC[C@H]1O[C@@H](n2cnc3c(NCc4cccc5ccccc45)nc(NC4CCCCC4)nc32)[C@H](O)[C@@H]1O` were 4.35 and 10300 nM. `OC[C@H]1OC(n2cnc3c(NCC4c5ccccc5-c5ccccc54)nc(Nc4ccccc4)nc32)[C@H](O)[C@@H]1O` (stereo not given in full): the pKi at Adenosine receptor A1 is 5.05. The molecule also came in with a Ki on Adenosine A2 receptor [1] of 2100 nM. For `COc1cc(OC)cc(C(CNc2nc(Nc3ccccc3)nc3c2ncn3C2O[C@H](CO)[C@@H](O)[C@H]2O)c2ccccc2)c1` (stereo not given in full), in that order: 5.05 and 470 nM. On Adenosine A2 receptor [2], `Nc1nc(Sc2ccccc2)nc2c1ncn2C1O[C@H](CO)[C@@H](O)[C@H]1O` (stereo not given in full) came in with a Ki of 2000 nM. This molecule gave a pKi on Adenosine receptor A1 of 5.66.

Take `OC[C@H]1OC(n2cnc3c(NC4CCCCC4)nc(Sc4ccccc4)nc32)[C@H](O)[C@@H]1O` (stereo not given in full): the pKi on Adenosine receptor A1 was 6.80. Further, the inhibitory constant (Ki) at Adenosine A2 receptor [1] is 6700 nM. For `O=S(=O)(c1ccccc1)c1nc(NCc2cccc3ccccc23)c2ncn(C3O[C@H](CO)[C@@H](O)[C@H]3O)c2n1` (stereo not given in full), in that order: 5.70 and 270 nM. Taken in the same sequence, the figures for `CC(Cc1ccccc1)Nc1nc(N)nc2c1ncn2C1O[C@H](CO)[C@@H](O)[C@H]1O` (stereo not given in full) were 7.72 and 1530 nM. For `OC[C@H]1OC(n2cnc3c(NCc4ccccc4)nc(Nc4ccccc4)nc32)[C@H](O)[C@@H]1O` (stereo not given in full), in that order: 5.79 and 7100 nM. At Adenosine receptor A1, `O=S(=O)(c1ccccc1)c1nc(NC2CCCC2)c2ncn(C3O[C@H](CO)[C@@H](O)[C@H]3O)c2n1` (stereo not given in full) showed a pKi of 7.02. The Ki at Adenosine A2 receptor [1] was determined as 2300 nM.

At Adenosine receptor A1, `OC[C@H]1OC(n2cnc3c(NC4CCCC4)nc(Sc4ccccc4)nc32)[C@H](O)[C@@H]1O` (stereo not given in full) showed a pKi of 7.43. At Adenosine A2 receptor [1], this molecule returned a Ki of 4000 nM. The molecule `OC[C@H]1OC(n2cnc3c(NCc4cccc5ccccc45)nc(F)nc32)[C@H](O)[C@@H]1O` (stereo not given in full) showed a pKi on Adenosine receptor A1 of 7.74. The molecule also gave a Ki at Adenosine A2 receptor [1] of 14.9 nM. Taken in the same sequence, the figures for `OC[C@H]1OC(n2cnc3c(NC4CC4)nc(Nc4ccccc4)nc32)[C@H](O)[C@@H]1O` (stereo not given in full) were 7.17 and 960 nM. For `OC[C@H]1O[C@@H](n2cnc3c(NC4CC4)ncnc32)[C@H](O)[C@@H]1O`, at Adenosine receptor A1, the pKi was 8.49. On Adenosine receptor A1, `OC[C@H]1OC(n2cnc3c(NCc4cccc5ccccc45)nc(NCc4ccccc4)nc32)[C@H](O)[C@@H]1O` (stereo not given in full) gave a pKi of 6.28. On Adenosine A2 receptor [1], this molecule yielded an inhibition constant Ki of 350 nM. On Adenosine receptor A1, `OC[C@H]1OC(n2cnc3c(NCC(c4ccccc4)c4ccccc4)nc(Sc4ccccc4)nc32)[C@H](O)[C@@H]1O` (stereo not given in full) gave a pKi of 6.08. This molecule displayed a Ki at Adenosine A2 receptor [1] of 800 nM. For `OC[C@H]1OC(n2cnc3c(NC4CCCCC4)nc(Nc4ccccc4)nc32)[C@H](O)[C@@H]1O` (stereo not given in full), in that order: 7.27 and 450 nM.

`OC[C@H]1OC(n2cnc3c(NCC(c4ccccc4)c4ccccc4)nc(Nc4ccccc4)nc32)[C@H](O)[C@@H]1O` (stereo not given in full) showed a pKi on Adenosine receptor A1 of 5.57. The molecule further had an inhibitory constant (Ki) at Adenosine A2 receptor [1] of 650 nM. Taken in the same sequence, the figures for `O=S(=O)(c1ccccc1)c1nc(NC2CCCCC2)c2ncn(C3O[C@H](CO)[C@@H](O)[C@H]3O)c2n1` (stereo not given in full) were 6.38 and 5100 nM.

In the case of `Nc1nc(NC2CCCC2)c2ncn(C3O[C@H](CO)[C@@H](O)[C@H]3O)c2n1` (stereo not given in full), the pKi at Adenosine receptor A1 was 8.08. Further, the Ki at Adenosine A2 receptor [1] worked out at 6100 nM. Taken in the same sequence, the figures for `OC[C@H]1OC(n2cnc3c(NN4CCCC4)nc(Nc4ccccc4)nc32)[C@H](O)[C@@H]1O` (stereo not given in full) were 4.74 and 58000 nM. For `COc1cc(OC)cc(C(CNc2nc(Nc3ccccc3)nc3c2ncn3C2O[C@H](CO)[C@@H](O)[C@H]2O)c2ccccc2C)c1` (stereo not given in full), the pKi at Adenosine receptor A1 is 4.99. Besides, the Ki on Adenosine A2 receptor [1] is reported as 340 nM.

`Nc1nc(NCC2c3ccccc3-c3ccccc32)c2ncn(C3O[C@H](CO)[C@@H](O)[C@H]3O)c2n1` (stereo not given in full) had a pKi at Adenosine receptor A1 of 7.73. At Adenosine A2 receptor [1], this molecule came in with a Ki of 22 nM.

As to `Nc1nc(NCC(c2ccccc2)c2ccccc2)c2ncn(C3O[C@H](CO)[C@@H](O)[C@H]3O)c2n1` (stereo not given in full), at Adenosine receptor A1, the pKi was 7.21. The Ki at Adenosine A2 receptor [1] was 135 nM.

Molecule `Nc1nc(S(=O)(=O)c2ccccc2)nc2c1ncn2C1O[C@H](CO)[C@@H](O)[C@H]1O` (stereo not given in full) yielded a Ki on Adenosine A2 receptor [2] of 1230 nM. Besides, on Adenosine receptor A1, the pKi was 5.59.

These data come from ChEMBL document CHEMBL1124694, “C2,N6-disubstituted adenosines: synthesis and structure-activity relationships” (J Med Chem, 1989).
